From US4029801A, “Pharmaceutical compositions and methods of treating hypertension” (priority 1970, dated 1977)
Read-outs that look alike come from different tables or passages of the source.

Experiments:
tremorine = test: Anti-tremorine activity; assay type: in vivo; details: result in words
Depressant activity = assay type: in vivo; details: result in words
[1] = test system: blood pressure and heart rate; test: Method 1 (rat): hypotensive activity in anaesthetised rats, i.v.; details: for minimal effective dose: Rattus norvegicus, iv
Method: Rats were anaesthetised with pentobarbitone sodium (60 mg/kg) and the jugular vein, trachea and carotid artery were cannulated. […] A decrease in heart rate of more than 30% from control values was considered to be significant bradycardia.

blood pressure = test: Tests for action on the cardiovascular system: hypotensive activity (activity in method 1, rats or cats, or method 2), reported in words; assay type: in vivo, rat, cat; details: standard test procedure, result in words
Method: Tests for action on the cardiovascular system were conducted according to one of the following procedures:
Cats were anaesthetised with pentobarbitone sodium (30 mg/kg) and the cephalic vein, femoral and carotid arteries and trachea were cannulated. The carotid cannula was introduced into the left ventricle and the femoral cannula into the aorta. Blood pressure and heart rate were recorded from the aortic cannula and left ventricular pressure from the carotid cannula. The test compunds were administered intravenously (0.1-25.6 mg/kg).
Method 2 (hypertensive rats)
Male or female rats are rendered hypertensive by applying a figure of 8 ligature around one kidney and contralateral nephrectomy. Blood pressure stabilises at a hypertensive level after 6 weeks. Systolic pressure is measured indirectly using a Decker Caudal Plethysmograph A control group of rats is run with each group treated with drug. Each group usually consists of six rats. Drugs are usually administered by the IP or oral routes. Pressures are read prior to drug administration and at two and 24 hours thereafter.

histamine = biological target: T1, histamine (Cavia porcellus, UniProt P31389); test: Antihistamine activity by the method of Alps et al.; details: for antihistamine activity: result in words
T1 construct: from tissue
T1 sequence (P31389 whole entry): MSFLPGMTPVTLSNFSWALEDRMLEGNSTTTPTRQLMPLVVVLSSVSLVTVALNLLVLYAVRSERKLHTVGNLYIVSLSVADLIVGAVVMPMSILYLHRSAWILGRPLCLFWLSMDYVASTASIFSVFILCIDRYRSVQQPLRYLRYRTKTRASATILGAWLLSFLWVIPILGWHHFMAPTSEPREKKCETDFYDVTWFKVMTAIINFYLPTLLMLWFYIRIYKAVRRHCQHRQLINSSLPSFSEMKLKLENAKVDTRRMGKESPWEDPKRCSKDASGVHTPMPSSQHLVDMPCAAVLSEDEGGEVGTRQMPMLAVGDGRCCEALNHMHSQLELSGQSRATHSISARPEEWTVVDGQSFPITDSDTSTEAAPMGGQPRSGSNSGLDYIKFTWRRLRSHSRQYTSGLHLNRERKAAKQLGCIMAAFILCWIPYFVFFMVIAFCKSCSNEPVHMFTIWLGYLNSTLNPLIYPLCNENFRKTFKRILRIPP

α-adrenoceptor = test: α-Adrenoceptor antagonism on the guinea pig aortic strip; details: for α-adrenoceptor antagonism: result in words; for pA2 (α-adrenoceptor antagonism): guinea pig aortic strip; for α-blockade pA2: Table 4
Source text: Carried out on the guinea pig aortic strip [Furchgott and Bhadrakom (1953) J. Pharmac. exp. Ther. 108, 129-143] by the method of Alps et al [Br. J. Pharmac. 1972 44, 52-62].

[2] = Anti-inflammatory activity; assay type: in vivo; details: result in words
[3] = 0.25 h, read-out: Hypotensive Activity
[4] = Table 4, read-out: Antihistamine pA2 (converted)
[5] = read-out: Significant hypotension (dose; fall of 30 mm mercury or more in diastolic pressure)
[6] = anaesthetised rat, i.v., cumulative dose

SMILES | depressant activity (Depressant activity) | minimal effective dose [1, 3] [mg/kg] | hypotensive activity (blood pressure) | antihistamine activity (histamine) | also measured
CC(=O)Nc1ccc(CCN2CCC(NC(=O)c3ccccc3)CC2)cc1 [Example 24, 1-[2-(p-Acetamidophenyl)ethyl]-4-benzamidopiperidine] | depressant | 6.4 to 12.8 | hypotensive activity | – | anti-tremorine activity (tremorine): anti-tremorine activities
O=C(NC1CCN(CC(O)COc2cccc3ccccc23)CC1)c1ccccc1 (centres unmarked) [Example 21, 1-[3-(1-Naphthoxy)-2-hydroxyprop-1-yl]-4-benzamidopiperidine] | some depressant activity | 6.4 to 12.8 | hypotensive activity | – | –
O=C(CCCN1CCC(NC(=O)c2ccccc2)CC1)c1ccc(F)cc1 [Example 42, 4-benzamido-1-[4-(p-fluorophenyl)-4-oxobutyl]-piperidine] | – | – | marked hypotensive activity | antihistamine | α-adrenoceptor antagonism (α-adrenoceptor): α-adrenoceptor antagonist; anti-inflammatory activity [2]: anti-inflammatory activity
COc1ccc(CCN2CCC(NC(=O)c3ccc4c(c3)OCO4)CC2)cc1OC [Example 7, 1-[2-(3,4-Dimethoxyphenyl)ethyl]-4-piperonylamidopiperidine] | depressant activity | < 30 | hypotensive | – | –
O=C(NC1CCN(CC2COc3ccccc3O2)CC1)c1ccccc1 (centres unmarked) [Example 102, 2-(4'-Benzamidopiperid-1-yl)methylbenzo-1,4-dioxan] | – | – | marked hypotensive activity | – | anti-inflammatory activity [2]: anti-inflammatory activity
O=C(NC1CCN(CCc2ccc([N+](=O)[O-])cc2)CC1)c1ccccc1 [Example 22, 1-[2-(p-Nitrophenyl)ethyl]-4-benzamidopiperidine] | depressant | 25.6 | hypotensive activity | – | anti-tremorine activity (tremorine): anti-tremorine activities
O=C(NC1CCN(CCCc2ccccc2)CC1)c1ccccc1 [Example 39, 1-[3-Phenylpropyl]-4-benzamidopiperidine] | – | 6.4 to 12.8 | good hypotensive activity | anti-histamine | Kb (histamine; [4]): 2.51 nM; Kb (histamine; pA2 (antihistamine activity), Table 2): 3.16 nM; anti-tremorine activity (tremorine): anti-tremorine activities; pA2 (α-adrenoceptor antagonism) (α-adrenoceptor): 7.1; α-adrenoceptor antagonism (α-adrenoceptor): α-adrenoceptor antagonism; minimal effective dose [1, 5]: 0.8 to 6.4 mg/kg; Significant bradycardia (dose; decrease in heart rate of more than 30%) [1, 6]: 25.6 mg/kg
Nc1ccc(CCN2CCC(NC(=O)c3ccccc3)CC2)cc1 [Example 23, 1-[2-(p-Aminophenyl)ethyl]-4-benzamidopiperidine] | depressant activity | < 30 | hypotensive activity | – | –
O=C(CN1CCC(NC(=O)c2ccccc2)CC1)c1ccc(Cl)c(Cl)c1 [Example 34] | depressant activities | < 30 | hypotensive | – | –
COc1ccc(CCN2CCC(N)CC2)cc1OC [Example 4, 1-[2-(3,4-Dimethoxyphenyl)ethyl]-4-aminopiperidine] | depressant activity | – | hypotensive | – | –
O=C(NC1CCN(Cc2ccc3c(c2)OCO3)CC1)c1ccccc1 [Example 47, 4-Benzamido-1-(3,4-methylenedioxybenzyl)piperidine] | – | 25.6 | hypotensive activity | – | anti-inflammatory activity [2]: anti-inflammatory activity
O=C(NC1CCN(CCc2c(Cl)cccc2Cl)CC1)c1ccccc1 [Example 38, 1-[2-(2,6-Dichlorophenyl)ethyl]-4-benzamidopiperidine] | depressant activities | < 30 | hypotensive activity | – | anti-tremorine activity (tremorine): anti-tremorine
Cc1ccc(C(=O)CCCN2CCC(NC(=O)c3ccccc3)CC2)c(C)c1 [Example 45, 4-Benzamido-1-[4-(2,4-dimethylphenyl)-4-oxo-butyl]piperidine] | – | 1.6 to 3.2 | hypotensive activity | antihistamine | Kb (histamine; [4]): 10 nM; α-blockade pA2 (α-adrenoceptor): 7.2; α-adrenoceptor antagonism (α-adrenoceptor): α-adrenoceptor antagonist activity
O=C(CN1CCC(NC(=O)c2ccccc2)CC1)c1ccccc1 [Example 10, 1-Phenacyl-4-benzamidopiperidine] | depressant activity | 6.4 to 12.8 | hypotensive | – | α-blockade pA2 (α-adrenoceptor): 5.8
CC(=O)Nc1ccc(O)c(CN2CCC(NC(=O)c3ccccc3)CC2)c1 [Example 18, 1-(5-Acetamido-2-hydroxybenzyl)-4-benzamidopiperidine] | depressant activity | < 30 | – | – | –
O=C(NC1CCN(CCc2ccccc2)CC1)c1ccccc1 [Example 27, 1-Phenethyl-4-benzamidopiperidine] | – | 1.6 to 3.2 | hypotensive activity | – | Kb (histamine; Table 2): 79.4 nM; pA2 (α-adrenoceptor antagonism) (α-adrenoceptor): 5.7; minimal effective dose [1, 5]: 3.2 mg/kg; Fatal (dose) [1, 6]: 12.8 to 25.6 mg/kg
O=C(CCCN1CCC(NC(=O)c2ccccc2)CC1)c1ccc(Cl)cc1 [Example 51, 4-Benzamido-1-[4-(p-chlorophenyl)-4-oxobutyl]piperidine] | – | 6.4 to 12.8 | hypotensive activity | anti-histamine | Kb (histamine; [4]): 20 nM; α-blockade pA2 (α-adrenoceptor): 8.4; α-adrenoceptor antagonism (α-adrenoceptor): highly potent α-adrenoceptor antagonist activity; anti-inflammatory activity [2]: anti-inflammatory activity
O=C(NC1CCN(CCc2ccc(O)c(O)c2)CC1)c1ccccc1 [Example 9, 1-[2(3,4-Dihydroxyphenyl)ethyl]-4-benzamidopiperidine] | depressant activity | < 30 | – | antihistamine | –
O=C(NC1CCN(CCCCc2ccccc2)CC1)c1ccccc1 [Example 46, 1-(4-Phenylbutyl)-4-benzamidopiperidine] | – | 6.4 to 12.8 | hypotensive activity | antihistamine activity | Kb (histamine; [4]): 39.8 nM; α-blockade pA2 (α-adrenoceptor): 6.95; α-adrenoceptor antagonism (α-adrenoceptor): α-adrenoceptor antagonist
O=C(NC1CCN(CCc2ccccn2)CC1)c1ccccc1 [Example 94, 1-[2-(2-Pyridyl)ethyl]-4-benzamidopiperidine] | depressant activities | – | marked hypotensive activity | antihistamine | –
Cc1ccccc1NC(=O)CCN1CCC(NC(=O)c2ccccc2)CC1 [Example 16, 1-[N-(2-Methylphenyl)carbamoylethyl]-4-benzamidopiperidine] | depressant activity | – | – | – | –
O=C(NC1CCN(CCc2c[nH]c3c2ccc2ccccc23)CC1)c1ccccc1 [Example 101, 1-[2-(3-Benz[g]indolyl)ethyl]-4-benzamidopiperidine] | depressant activity | 6.4 to 12.8 | marked hypotensive activity | – | –
Nc1ccccc1CCN1CCC(NC(=O)c2ccccc2)CC1 [Example 35, 1-[2-(o-Aminophenyl)ethyl]-4-benzamidopiperidine] | depressant activities | 6.4 to 12.8 | hypotensive | – | –
O=C(NC1CCN(CCc2ccc(Cl)c(Cl)c2)CC1)c1ccccc1 [Example 37, 1-[2-(3,4-Dichlorophenyl)ethyl]-4-benzamidopiperidine] | – | 1.6 to 3.2 | good hypotensive activity | antihistamine | Kb (histamine; [4]): 3.98 nM; anti-tremorine activity (tremorine): anti-tremorine activities; α-blockade pA2 (α-adrenoceptor): 7.35; α-adrenoceptor antagonism (α-adrenoceptor): α-adrenoceptor antagonism
Cc1ccc(C)c(C(=O)CCCN2CCC(NC(=O)c3ccccc3)CC2)c1 [Example 44, 4-Benzamido-1-[4-(2,5-dimethylphenyl)-4-oxobutyl]piperidine] | – | 1.6 to 3.2 | hypotensive activity | antihistamine | Kb (histamine; [4]): 20 nM; α-blockade pA2 (α-adrenoceptor): 7.5; α-adrenoceptor antagonism (α-adrenoceptor): α-adrenoceptor antagonist activities
O=C(NC1CCN(CCc2cccc3ccccc23)CC1)c1ccccc1 [Example 12, 1-[2-(1-Naphthyl)ethyl]-4-benzamidopiperidine] | depressant activity | < 30 | – | – | –
